The values that follow come from patent publication US20170305893A1 (Thomas Helledays Stiftelse for Medicinsk Forskning, priority 2014, published 2017).

One experiment addresses T1, DCTPP1 (Homo sapiens, UniProt Q9H773).
T1 sequence (Q9H773 1-170): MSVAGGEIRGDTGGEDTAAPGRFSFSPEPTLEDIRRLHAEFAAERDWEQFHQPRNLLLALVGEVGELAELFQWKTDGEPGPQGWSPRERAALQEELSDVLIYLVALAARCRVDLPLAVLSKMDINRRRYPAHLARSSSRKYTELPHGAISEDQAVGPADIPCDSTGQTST
The experiment in a line: DCTPP1 inhibition assay (malachite green). The format is biochemical. Particulars: 35 nM DCTPP1, 35 μM dCTP, 20 minutes at 22° C.; read-out: IC50. Here is the method: DCTPP1 catalyzes the hydrolysis of dCTP to dCMP and PPi. By coupling the reaction to pyrophosphatase added in excess PPi is converted to Pi that can be detected by using the malachite green assay reagent. […] DCTPP1 diluted in assay buffer (100 mM Tris-acetate, 100 mM KCl, 10 mM magnesium acetate, 1 mM DTT and 0.005% Tween 20) fortified with E. coli pyrophosphatase (0.2 U/mL) is added to a final concentration of 35 nM. dCTP diluted in assay buffer is added to a final concentration of 35 μM. The reaction mixture is incubated with shaking for 20 minutes at 22° C. To 100 μl reaction mixture is added […] Malachite green assay reagent (0.095% Malachite green in 17% H2SO4, 1.5% Ammonium molybdate, 0.17% Tween 20) added followed by incubation with shaking for 15 minutes at 22° C. The absorbance of the assay plate is read at 630 nm using a SpectraMax plate reader (Molecular Devices).
On to `O=[N+]([O-])c1cccc2c1nc(C(F)(F)F)n2Cc1ccc(B(O)O)cc1` [Compound 2.2.8, (4-((4-nitro-2-(trifluoromethyl)-1H-benzo[d]imidazol-1-yl)methyl)phenyl)boronic acid], for which the IC50 is 206 nM.

Turning to `COc1ccc(Cn2c(C)nc3c([N+](=O)[O-])c(Cl)c(Cl)cc32)cc1` [Compound 2.2.20, 5,6-dichloro-1-(4-methoxybenzyl)-2-methyl-4-nitro-1H-benzo[d]imidazole], the IC50 was determined as 41 nM. The same measure, in the same setting: under `Cc1cc2c(nc(C)n2Cc2ccc(B(O)O)cc2)c([N+](=O)[O-])c1C` [Compound 2.2.60, (4-((2,5,6-trimethyl-4-nitro-1H-benzo[d]imidazol-1-yl)methyl)phenyl)boronic acid] stands 65 nM.

The same experiment, now with this note: 35 nM DCTPP1, 35 μM dCTP, 20 minutes at 22° C.; read-out: IC50 (nM), class.
Consider `COc1ccc(Cn2c(C)nc3c([N+](=O)[O-])c(C)c(C)cc32)cc1` [Compound 2.2.54, 1-(4-methoxybenzyl)-2,5,6-trimethyl-4-nitro-1H-benzo[d]imidazole], for which the 50% inhibitory concentration (IC50) is less than 100 nM.

Take `Cc1nc2c([N+](=O)[O-])c(Cl)c(Cl)cc2n1Cc1ccc(O)cc1` [Compound 2.2.25, 4-((5,6-dichloro-2-methyl-4-nitro-1H-benzo[d]imidazol-1-yl)methyl)phenol]: the half-inhibitory concentration (IC50) was less than 100 nM. Regarding `Cc1nc2c([N+](=O)[O-])c(Cl)c(Cl)cc2n1Cc1ccc(-n2cccn2)cc1` [Compound 2.2.34, 1-(4-(1H-pyrazol-1-yl)benzyl)-5,6-dichloro-2-methyl-4-nitro-1H-benzo[d]imidazole], the IC50 was less than 100 nM. Same read-out and setting: the figure for `Cc1nc2cc(F)c(F)c([N+](=O)[O-])c2n1Cc1ccc(B(O)O)cc1` [Compound 2.3.4, (4-((5,6-difluoro-2-methyl-7-nitro-1H-benzo[d]imidazol-1-yl)methyl)phenyl)boronic acid] is 500 to 1000 nM. Still for that read-out and setting: under `Cc1nc2c([N+](=O)[O-])c(F)c(F)cc2n1C(C)c1ccccc1` (stereo not shown) [Compound 2.2.14, 5,6-difluoro-2-methyl-4-nitro-1-(1-phenylethyl)-1H-benzo[d]imidazole] stands no less than 1000 nM; under `C=CC(=O)Nc1ccc(Cn2c(C)nc3c([N+](=O)[O-])c(Cl)c(Cl)cc32)cc1` [Compound 2.2.32, N-(4-((5,6-dichloro-2-methyl-4-nitro-1H-benzo[d]imidazol-1-yl)methyl)phenyl)acrylamide], less than 100 nM. Still for that read-out and setting: the figure for `O=[N+]([O-])c1cccc2c1nc(C(F)(F)F)n2Cc1ccc(B(O)O)cc1` [Compound 2.2.8, (4-((4-nitro-2-(trifluoromethyl)-1H-benzo[d]imidazol-1-yl)methyl)phenyl)boronic acid] is 100 to 500 nM; for `COc1ccc(Cn2c(C)nc3c([N+](=O)[O-])c(Cl)c(Cl)cc32)cc1` [Compound 2.2.20, 5,6-dichloro-1-(4-methoxybenzyl)-2-methyl-4-nitro-1H-benzo[d]imidazole] it is less than 100 nM. Turning to `CC(=O)Oc1ccc(Cn2c(C)nc3c([N+](=O)[O-])c(Cl)c(Cl)cc32)cc1` [Compound 2.2.22, 4-((5,6-dichloro-2-methyl-4-nitro-1H-benzo[d]imidazol-1-yl)methyl)phenyl acetate], the IC50 is less than 100 nM. The same measure, in the same setting: under `Cc1nc2c([N+](=O)[O-])c(F)c(F)cc2n1Cc1ccc(F)cc1` [Compound 2.2.12, 5,6-difluoro-1-(4-fluorobenzyl)-2-methyl-4-nitro-1H-benzo[d]imidazole] stands 500 to 1000 nM. With `COc1ccc(Cn2c(-c3ccccc3)nc3cccc([N+](=O)[O-])c32)cc1` [Compound 2.3.3, 1-(4-methoxybenzyl)-7-nitro-2-phenyl-1H-benzo[d]imidazole], the IC50 is no less than 1000 nM. The same measure, in the same setting: the figure for `COc1ccc(Cn2c(Cc3ccccc3)nc3cccc([N+](=O)[O-])c32)cc1` [Compound 2.3.1, 2-benzyl-1-(4-methoxybenzyl)-7-nitro-1H-benzo[d]imidazole] is no less than 1000 nM; for `COC(=O)c1ccc(Cn2c(C)nc3c([N+](=O)[O-])c(Cl)c(Cl)cc32)cc1` [Compound 2.2.38, methyl 4-((5,6-dichloro-2-methyl-4-nitro-1H-benzo[d]imidazol-1-yl)methyl)benzoate] it is 100 to 500 nM. On the same count and under the same terms, under `Cc1cc2c(nc(C)n2Cc2cc3c(cc2Cl)OCO3)c([N+](=O)[O-])c1C` [Compound 2.2.53, 1-((6-chlorobenzo[d][1,3]dioxol-5-yl)methyl)-2,5,6-trimethyl-4-nitro-1H-benzo[d]imidazole] stands no less than 1000 nM; under `Cc1nc(Cn2c(C)nc3c([N+](=O)[O-])c(Cl)c(Cl)cc32)cs1` [Compound 2.2.42, 4-((5,6-dichloro-2-methyl-4-nitro-1H-benzo[d]imidazol-1-yl)methyl)-2-methylthiazole], 100 to 500 nM; under `Cc1nc2c([N+](=O)[O-])c(Cl)c(Cl)cc2n1Cc1ccccc1B(O)O` [Compound 2.2.46, (2-((5,6-dichloro-2-methyl-4-nitro-1H-benzo[d]imidazol-1-yl)methyl)phenyl)boronic acid], less than 100 nM. The same measure, in the same setting: under `Cc1n[nH]c(C)c1CCn1c(C)nc2c([N+](=O)[O-])c(Cl)c(Cl)cc21` [Compound 2.2.33, 5,6-dichloro-1-(2-(3,5-dimethyl-1H-pyrazol-4-yl)ethyl)-2-methyl-4-nitro-1H-benzo[d]imidazole] stands 100 to 500 nM; under `COCc1nc2c([N+](=O)[O-])cccc2n1Cc1ccc(OC)cc1` [Compound 2.2.6, 1-(4-methoxybenzyl)-2-(methoxymethyl)-4-nitro-1H-benzo[d]imidazole], no less than 1000 nM; under `Cc1nc2c([N+](=O)[O-])c(Cl)c(Cl)cc2n1Cc1ccc(C(=O)O)cc1` [Compound 2.2.37, 4-((5,6-dichloro-2-methyl-4-nitro-1H-benzo[d]imidazol-1-yl)methyl)benzoic acid], less than 100 nM. Turning to `COc1ccc(Cn2c(C)nc3c([N+](=O)[O-])cccc32)cc1` [Compound 2.2.1, 1-(4-methoxybenzyl)-2-methyl-4-nitro-1H-benzo[d]imidazole], the IC50 was no less than 1000 nM.

Regarding `Cc1nc2c([N+](=O)[O-])c(F)c(F)cc2n1Cc1ccc(C#N)cc1` [Compound 2.2.11, 4-((5,6-difluoro-2-methyl-4-nitro-1H-benzo[d]imidazol-1-yl)methyl)benzonitrile], the IC50 was no less than 1000 nM. On the same count and under the same terms, under `COc1ccc(Cn2c(Cc3ccccc3)nc3c([N+](=O)[O-])cccc32)cc1` [Compound 2.2.3, 2-benzyl-1-(4-methoxybenzyl)-4-nitro-1H-benzo[d]imidazole] stands no less than 1000 nM; under `Cc1nc2c([N+](=O)[O-])c(Cl)c(Cl)cc2n1Cc1ccc(C#N)cc1` [Compound 2.2.40, 4-((5,6-dichloro-2-methyl-4-nitro-1H-benzo[d]imidazol-1-yl)methyl)benzonitrile], 100 to 500 nM. Same read-out and setting: under `COc1cccc(Cn2c(C)nc3c([N+](=O)[O-])c(Cl)c(Cl)cc32)c1` [Compound 2.2.21, 5,6-dichloro-1-(3-methoxybenzyl)-2-methyl-4-nitro-1H-benzo[d]imidazole] stands 100 to 500 nM.

Another experiment deals with human cancer cell lines.
Test: not given
Particulars: three types of human cancer cell lines; cited from earlier work.
For `COc1cc(C(=O)n2ccc3c([N+](=O)[O-])c(OC)ccc32)cc(OC)c1OC` [(5-methoxy-4-nitroindol-1-yl)(3,4,5-trimethoxy-phenyl)methanone], the antiproliferative activity entry is reported as “does not show any activity”.

The term IC50 denotes the concentration that inhibits the measured activity by half.
